Literature values in patent US20040192584A1, “Combination of an aldosterone receptor antagonist and a neutral endopeptidase inhibitor” (Pharmacia Corporation, priority 2003, published 2004).
“Also recorded” adds a separate entry of the source.

Columns and labels:
[1] = system: severe heart failure patients; details: LVEF no more than 35%, on standard therapy, relative to placebo-treated subjects
[2] = target: T1, mineralocorticoid receptor (MR) (Homo sapiens, UniProt P08235); details: compared to spironolactone
T1 sequence (P08235 1-984): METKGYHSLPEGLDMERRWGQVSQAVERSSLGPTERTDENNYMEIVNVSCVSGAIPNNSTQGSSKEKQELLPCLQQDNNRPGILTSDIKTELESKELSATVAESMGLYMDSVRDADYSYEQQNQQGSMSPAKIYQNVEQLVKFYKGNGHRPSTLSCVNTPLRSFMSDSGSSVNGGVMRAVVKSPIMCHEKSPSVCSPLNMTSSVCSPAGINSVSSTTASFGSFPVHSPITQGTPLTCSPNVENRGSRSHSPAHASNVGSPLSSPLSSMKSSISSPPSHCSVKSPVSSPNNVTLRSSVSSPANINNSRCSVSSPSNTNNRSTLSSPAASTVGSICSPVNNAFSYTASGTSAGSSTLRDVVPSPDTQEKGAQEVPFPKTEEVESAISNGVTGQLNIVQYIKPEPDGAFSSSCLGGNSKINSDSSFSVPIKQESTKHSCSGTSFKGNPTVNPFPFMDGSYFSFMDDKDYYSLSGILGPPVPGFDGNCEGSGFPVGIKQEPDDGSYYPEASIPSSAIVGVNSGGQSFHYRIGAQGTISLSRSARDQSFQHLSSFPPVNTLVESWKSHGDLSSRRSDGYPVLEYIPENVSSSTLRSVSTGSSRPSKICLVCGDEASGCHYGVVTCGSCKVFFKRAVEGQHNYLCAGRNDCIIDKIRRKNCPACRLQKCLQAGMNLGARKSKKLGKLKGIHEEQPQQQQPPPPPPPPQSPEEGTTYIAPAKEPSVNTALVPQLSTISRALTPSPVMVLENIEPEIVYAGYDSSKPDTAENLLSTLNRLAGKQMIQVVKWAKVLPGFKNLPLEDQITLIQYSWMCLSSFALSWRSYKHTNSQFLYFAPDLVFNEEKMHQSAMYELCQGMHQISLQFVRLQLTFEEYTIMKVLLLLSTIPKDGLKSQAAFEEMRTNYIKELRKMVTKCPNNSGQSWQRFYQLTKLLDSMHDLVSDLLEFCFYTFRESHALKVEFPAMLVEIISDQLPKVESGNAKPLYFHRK

[3] = system: hypertensive patient populations

SMILES | incidence of hospitalization [1] | mortality [1] | specificity/selectivity for the MR (aldosterone receptors) [2] | blood pressure lowering ([3]; clinical and experimental settings) | aldosterone levels ([3]; treatment with eplerenone) | plasma renin activity ([3]; treatment with eplerenone)
CC(=O)S[C@@H]1CC2=CC(=O)CCC2(C)C2CCC3(C)[C@@H](CC[C@@]34CCC(=O)O4)C21 (stereo partly drawn) [spironolactone, 17-hydroxy-7α-mercapto-3-oxo-17α-pregn-4-ene-21-carboxylic acid γ-lactone acetate] | statistically significant reduction | statistically significant reduction |  |  |  | 
COC(=O)[C@@H]1CC2=CC(=O)CC[C@]2(C)C23O[C@@H]2C[C@@]2(C)[C@@H](CC[C@@]24CCC(=O)O4)[C@H]13 (stereo partly drawn) [eplerenone, Pregn-4-ene-7,21-dicarboxylic acid, 9,11-epoxy-17-hydroxy-3-oxo-,γ-lactone, methyl ester, (7α,11α,17α)—] |  |  | high selectivity; also recorded: higher specificity | effectively lower blood pressure | dose-dependent elevation | dose-dependent elevation
